From the supplement of paper PMC10307832

Assays:
Experiment in all cases: relative viability (nuclei count vs DMSO), 5 days (fraction); higher = more cells survive
BMX-IN-1 + Navitoclax = compound: C=CC(=O)Nc1cc(-n2c(=O)ccc3cnc4ccc(-c5ccc(NS(C)(=O)=O)cc5)cc4c32)ccc1C [BMX-IN-1] + CC1(C)CCC(c2ccc(Cl)cc2)=C(CN2CCN(c3ccc(C(=O)NS(=O)(=O)c4ccc(N[C@H](CCN5CCOCC5)CSc5ccccc5)c(S(=O)(=O)C(F)(F)F)c4)cc3)CC2)C1 [Navitoclax] (partner 0.5 µM)
How it was run: (§1)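 Medians of duplicate plates are given as relative viability. That measure is the nuclei count in treated wells divided by the count in vehicle wells. Counts were taken on 4× images of lung cancer cell lines in 1536-well plates, 5 days after pin-tool dosing the day after seeding with one drug alone or a fixed anchor-drug dose plus five library-drug doses (not always all listed) in √10 steps.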

Ibrutinib + Dasatinib = compound: C=CC(=O)N1CCC[C@@H](n2nc(-c3ccc(Oc4ccccc4)cc3)c3c(N)ncnc32)C1 [Ibrutinib] + Cc1nc(Nc2ncc(C(=O)Nc3c(C)cccc3Cl)s2)cc(N2CCN(CCO)CC2)n1 [Dasatinib] (partner 0.075 µM)
How it was run: as §1

BMX-IN-1 + Pemetrexed = compound: C=CC(=O)Nc1cc(-n2c(=O)ccc3cnc4ccc(-c5ccc(NS(C)(=O)=O)cc5)cc4c32)ccc1C [BMX-IN-1] + Nc1nc2[nH]cc(CCc3ccc(C(=O)N[C@@H](CCC(=O)O)C(=O)O)cc3)c2c(=O)[nH]1 [Pemetrexed] (partner 0.2 µM)
How it was run: as §1

BMX-IN-1 + Palbociclib = compound: C=CC(=O)Nc1cc(-n2c(=O)ccc3cnc4ccc(-c5ccc(NS(C)(=O)=O)cc5)cc4c32)ccc1C [BMX-IN-1] + CC(=O)c1c(C)c2cnc(Nc3ccc(N4CCNCC4)cn3)nc2n(C2CCCC2)c1=O [Palbociclib] (partner 0.5 µM)
How it was run: as §1

Cell Line	relative viability (BMX-IN-1 + Navitoclax; first compound 0.02 µM)	relative viability (BMX-IN-1 + Navitoclax; first compound 0.2 µM)	relative viability (BMX-IN-1 + Navitoclax; first compound 0.6325 µM)	relative viability (BMX-IN-1 + Navitoclax; first compound 2 µM)	relative viability (Ibrutinib + Dasatinib; first compound 0.005 µM)	relative viability (Ibrutinib + Dasatinib; first compound 0.01581 µM)	relative viability (Ibrutinib + Dasatinib; first compound 0.05 µM)	relative viability (Ibrutinib + Dasatinib; first compound 0.1581 µM)	relative viability (Ibrutinib + Dasatinib; first compound 0.5 µM)	relative viability (BMX-IN-1 + Pemetrexed; first compound 0.02 µM)	relative viability (BMX-IN-1 + Pemetrexed; first compound 0.2 µM)	relative viability (BMX-IN-1 + Pemetrexed; first compound 0.6325 µM)	relative viability (BMX-IN-1 + Pemetrexed; first compound 2 µM)	relative viability (BMX-IN-1 + Palbociclib; first compound 0.02 µM)	relative viability (BMX-IN-1 + Palbociclib; first compound 0.2 µM)	relative viability (BMX-IN-1 + Palbociclib; first compound 0.6325 µM)	relative viability (BMX-IN-1 + Palbociclib; first compound 2 µM)
LCLC-97TM1	0.349	0.429	0.322	0.46	0.951	0.804	0.973	0.703	0.782	0.142	0.191	0.195	0.2	0.247	0.3	0.227	0.217
NCI-H2023	1.36	1.15	1.12	0.988	0.578	0.546	0.532	0.55	0.516	0.285	0.304	0.226	0.26	0.48	0.389	0.386	0.381
LC-2-ad	0.55	0.504	0.776	0.513	0.315	0.608	0.637	0.49	0.565	0.265	0.28	0.277	0.281	0.498	0.574	0.543	0.509
NCI-H1975	1.34	1.19	1.34	1	0.349	0.293	0.263	0.345	0.134	0.321	0.312	0.29	0.279	1	0.655	0.685	0.698
NCI-H1793	0.454	0.363	0.483	0.38	–	0.371	0.358	0.389	0.303	0.945	1.01	0.966	0.806	0.38	0.35	0.285	0.307
Calu-6	1.08	1.06	0.902	0.823	–	–	–	–	–	–	–	–	–	–	–	–	–
HCC-366	1.54	1.29	1.15	1.05	0.734	0.569	0.633	0.538	0.597	0.163	0.183	0.165	0.202	0.535	0.385	0.454	0.485
NCI-H2347	0.978	0.887	0.785	0.871	–	0.298	0.274	0.188	0.302	0.412	0.298	0.417	0.397	0.443	0.406	0.458	0.393
NCI-H2405	0.957	0.846	0.915	0.836	0.232	0.19	0.189	0.206	0.237	1.13	1.19	1.09	0.94	0.574	0.585	0.584	0.542
HCC-44	1.25	1.16	1.13	0.989	–	–	–	–	–	0.727	0.663	0.625	0.678	1.02	0.96	0.996	0.979
NCI-H1563	–	–	–	–	0.431	0.456	0.507	0.46	0.415	0.748	0.769	0.724	0.675	–	–	–	–
